{"source": "paper PMC11468213", "about": "“Ionic Liquid‐Mediated Transdermal Delivery of Thrombosis‐Detecting Nanosensors” (Advanced Healthcare Materials, 2022)", "key": {"[1]": {"experiment": "Ex vivo skin penetration, Franz diffusion cell, mouse skin", "assay_type": "in vitro ADME, mouse (Swiss Webster)", "settings": "37 °C, 24 h, fluorescence, n = 3 skin samples", "description": "Next, we validated the skin penetration of the nanosensors by coformulating unquenched, 5‐FAM labelled, thrombin substrate‐conjugated PEG nanoparticles (TDN‐FAM, Table S1, Supporting Information) and 30% CAGE solution. Ex vivo conditions were established by incubating TDN‐FAM/CAGE with mouse skin samples that were stabilized in a Franz diffusion cell set‐up.^[ [14], [15] ^] Three main layers of skin samples, namely stratum corneum, viable epidermis, and dermis, as well as the PBS solution underneath the skin (acceptor solution), were collected, and nanosensor concentration was quantified via fluorescence spectroscopy.\nFigure 2 A) Quantification of TDN‐FAM extracted from different layers of mouse skin via fluorescence readout. SC: Stratum Corneum. […]\nThe skin penetration studies were undertaken using porcine skin in Franz diffusion cells, as described previously in full.^[ [23] ^] […] For quantitative analysis, the stratum corneum was removed by tape stripping (ten layers), the epidermis was separated from the dermis with a scalpel, and a 4 mm punch was used thrice to remove a third of the dermis (by area). […] 100 µL of the extracted fluid was then placed into a black Corning 96‐well plate and analyzed using a i3 SpectraMax plate reader, with excitation wavelength of 750 nm and an emission wavelength of 775 nm. […]"}, "[2]": {"system": "acute pulmonary embolism mouse model", "experiment": "Urinary reporter detection of thrombosis in thromboplastin-injected acute pulmonary embolism mouse model", "assay_type": "in vivo, Swiss Webster mice", "settings": "for ROC AUC: n = 5 per group", "from_the_text": "Next, we sought to assess whether transdermally delivered nanosensors could detect disease in this model. Thrombin substrate flanked by near‐IR dye, Cy7, was conjugated to PEG nanoparticles (TDN‐Cy7), were solvated in 30% CAGE and administered topically to Swiss Webster mice. The TDN‐Cy7 nanoparticles were designed such that cleavage of the thrombin substrate would liberate a renally clearable fragment with Cy7 that could enable quantification in the urine by fluorescence. Concomitant quantification of plasma‐borne TDN‐Cy7 was performed to normalize the urine signal in order to mitigate the mouse‐to‐mouse variation that may arise due to the heterogeneous skin conditions present across individual subjects. Thromboplastin was intravenously administered to mice at different time points after topical administration of CAGE/TDN solution on the dorsal skin. Urine collection was performed 30 min after thromboplastin injection, and fluorescence measurement was carried out to detect reporter peptides in the urine. […] These finding indicate that topical administration with CAGE achieves circulatory delivery of nanosensors that enable sustained, noninvasive monitoring of thromboembolism in vivo as opposed to bolus injection into the blood.\nFigure 4 A) Urinary reporter concentrations relative to plasma TDN‐Cy7 concentrations for thromboplastin‐injected (Thrombosis) and healthy control mice at different time points after nanosensor administration (mean ± s.d., n = 5 mice per group; *P < 0.05 and **P < 0.01, two‐tailed Mann–Whitney's […]). […] C) Urinary reporter concentrations in healthy versus thrombosis mice 6 h after intravenous injection of TDN‐Cy7 (mean ± s.d., n = 5 mice per group; ns: not significant). D) ROC curve calculated from data at panel (C) (AUC = 0.60).\nFor urine detection of thrombosis, 10 µL of CAGE (30%) containing TDN‐Cy7 nanosensor (4nmoles by peptide) was administered onto previously shaved dorsal skin of Swiss Webster mice, which were subsequently returned to their cages. At different time points postadministration, thromboplastin (0.75 µL g^−1 bodyweight of 4 mg mL^−1 stock in PBS) was injected intravenously, and both urine and blood (retroorbital draw) were collected 30 min p.i. Plasma is collected similar to the pharmacokinetic study and both urine and plasma were stored at −80 °C. Cleaved peptide reporters in the urine was quantified with fluorescence of Cy7 (Excitation 750 nm, emission 790 nm). Plasma levels of TDN‐Cy7 were similarly quantified using fluorescence and used for normalizing the urine signals."}, "[3]": {"experiment": "Colloidal stability by absorption spectrum after storage", "assay_type": "physicochemical", "settings": "presence and absence of CAGE; 24 h room temperature storage; absorbance spectrum", "from_the_text": "(§1) To assess the solubility, stability, and activity of our nanosensors in CAGE, we conjugated a thrombin substrate (–GGfPRSGGG–) to 40 kDa PEG nanoparticles at an 8:1 substrate:nanoparticle ratio. The substrates were flanked by 5‐carboxyfluorescein (5‐FAM) and a Förster resonance energy transfer quencher molecule (CPQ2) in close proximity, such that proteolytic cleavage would result in fluorescence signal (nanoparticle was denoted as TDN‐qFAM, Figure 1A). […] In addition, the colloidal stability of TDN‐qFAM was assessed by the absorption spectrum of TDN‐qFAM in the presence and absence of CAGE after 24 h of room temperature storage (Figure 1C). […]\n(§2) The CAGE and TDNs coformulation was prepared by addition of 1 mL of CAGE onto 1 mg of conjugated PEG powder, followed by iterative short mixing and ultrasonication steps until a clear solution was observed. […] Size analysis was performed in dynamic light scattering (ZetaSizer), and absorbance spectra were obtained in Tecan Spectrophotometer. For in vitro cleavage assays, recombinant thrombin (10 × 10^−9 M working concentration) was mixed with TDN‐Q in CAGE (30%) solution (10 × 10^−6 M by peptide), and cleavage was monitored by fluorescence at 535 nm of dequenched 5‐carboxyfluorescein (5‐FAM). […]"}, "[4]": {"molecular_target": "recombinant thrombin (Homo sapiens, UniProt P00734)", "experiment": "Fluorescence dequenching cleavage assay with recombinant thrombin", "assay_type": "biochemical", "settings": "fluorescence at 535 nm, triplicate", "from_the_text": "To assess the solubility, stability, and activity of our nanosensors in CAGE, we conjugated a thrombin substrate (–GGfPRSGGG–) to 40 kDa PEG nanoparticles at an 8:1 substrate:nanoparticle ratio. The substrates were flanked by 5‐carboxyfluorescein (5‐FAM) and a Förster resonance energy transfer quencher molecule (CPQ2) in close proximity, such that proteolytic cleavage would result in fluorescence signal (nanoparticle was denoted as TDN‐qFAM, Figure 1A). […] In addition, the colloidal stability of TDN‐qFAM was assessed by the absorption spectrum of TDN‐qFAM in the presence and absence of CAGE after 24 h of room temperature storage (Figure 1C). […] We then investigated whether the presence of CAGE components influenced the stability of the peptide substrate and the activity of thrombin against TDN‐qFAM. […] However, upon stepwise dilution of CAGE with phosphate buffered saline (PBS), the functionality of TDN‐qFAM against thrombin cleavage was improved.\nFigure 1 A) Chemical components of CAGE ionic liquid and schematic representation of TDN‐qFAM nanoparticles with thrombin substrate sequence. B) Dynamic light scattering and C) absorbance spectra of TDN‐qFAM in PBS and CAGE solutions. […]) Fluorescence dequenching experiment for enzyme cleavage kinetics in the presence (empty circles) and absence (full circles) of recombinant thrombin in the TDN‐qFAM/CAGE solution. […]"}, "[5]": {"molecular_target": "T1, endogenous thrombin (Mus musculus, UniProt P19221)", "T1 construct": "The cleavage study was carried out in mouse serum obtained from Sigma Aldrich; tissue Sigma Aldrich; host or cells: mouse serum", "experiment": "Cleavage kinetics in mouse serum at different CAGE concentrations", "assay_type": "biochemical", "settings": "37 °C, fluorescence"}, "[6]": {"experiment": "Ex vivo skin penetration, Franz diffusion cell, porcine skin", "assay_type": "in vitro ADME", "settings": "300 µL, 37 °C, 24 h", "description": "Porcine skin samples were placed on Franz diffusion cells, and the diffusion of TDN‐qFAM nanoparticles was tested with different concentrations of CAGE present in the formulation.\nFigure 5 A) Confocal microscopy image of a paraffin‐embedded porcine skin section after 24 h of topical administration of TDN‐qFAM in 100% CAGE. Left: bright field; right: fluorescence image. Scale bar: 200 µm. B) Quantitative results of nanoparticles found in ex vivo porcine skin layers using Franz diffusion cell set‐up with different CAGE concentrations. (mean ± s.d., n = 3 independent skin slices).\nThe skin penetration studies were undertaken using porcine skin in Franz diffusion cells, as described previously in full.^[ [23] ^] Briefly, thawed porcine skin (CBSET, Lexington MA) or mouse skin removed from Swiss Webster strain was placed in a diffusion cell with the stratum corneum facing upwards. The acceptor component of the cell was filled with PBS and equipped with a magnetic stirrer bar. 300 µL was placed on top of the skin, ensuring full coverage. The diffusion cell was placed on a stirrer plate at 37 °C for 24 h, at which point the skin was removed and the surface washed gently with PBS. For quantitative analysis, the stratum corneum was removed by tape stripping (ten layers), the epidermis was separated from the dermis with a scalpel, and a 4 mm punch was used thrice to remove a third of the dermis (by area). The tissue was then placed into a 50% methanol/PBS mixture, and left to shake overnight at RT to extract the drug. 100 µL of the extracted fluid was then placed into a black Corning 96‐well plate and analyzed using a i3 SpectraMax plate reader, with excitation wavelength of 750 nm and an emission wavelength of 775 nm. For the confocal microscopy, the skin was affixed to a cryostat stage with fixing compound and 20 µm slices were taken using a cryostat (Leica CM1950, Leica, Germany). The slices of skin were placed on negatively charged slides (Fisher Scientific, Pittsburgh, PA, USA) and imaged using a confocal microscope (Upright Zeiss LSM 710 NLO) with a 10× air objective."}, "[7]": {"experiment": "Dynamic light scattering size analysis of nanosensors in CAGE", "assay_type": "physicochemical", "from_the_text": "as §1, §2"}}, "data": [{"substance": "5FAM-GGfPRSGGGK-(EG)2-C-[8armPEG] [TDN‐FAM, Unquenched 5-carboxyfluorescein conjugated thrombosis detecting nanosensors on 8-arm PEG]", "values": [{"measurement": "signal in dermis layer and acceptor solution", "setting": "[1]; 30% CAGE vs PBS, 300 µL, acceptor PBS", "result": "markedly increased signal"}, {"measurement": "recovery from dermis and acceptor layers", "setting": "[1]; 50% CAGE vs 30% CAGE", "result": "even higher recovery"}]}, {"substance": "Cy7-GGfPRSGGGK-(EG)2-C-[8armPEG] [TDN‐Cy7, Unquenched Cy7 conjugated thrombosis detecting nanosensors on 8-arm PEG]", "values": [{"measurement": "ROC AUC", "setting": "[2]; 6 h after intravenous injection", "result": 0.60}, {"measurement": "amount of reporter in urine vs healthy background", "setting": "[2]; intravenous injection 6 h before thromboplastin, n = 5", "result": "not significantly different from healthy background"}, {"measurement": "urinary reporter signal, diseased vs healthy mice", "setting": "[2]; topical 30% CAGE, 4 nmoles by peptide, thromboplastin 6 h after administration, urine 30 min later, normalised to plasma, n = 5, P = 0.0079", "result": "significantly increased"}, {"measurement": "ROC AUC", "setting": "[2]; topical 30% CAGE, 6 h after nanosensor administration", "result": 1.00}, {"measurement": "ROC AUC", "setting": "[2]; topical 30% CAGE, 12 h after nanosensor administration", "result": 1.00}, {"measurement": "ROC AUC", "setting": "[2]; topical 30% CAGE, 24 h after nanosensor administration", "result": 0.96}, {"measurement": "ROC AUC", "setting": "[2]; topical 30% CAGE, 48 h after nanosensor administration", "result": 0.84}, {"measurement": "ROC AUC", "setting": "[2]; topical 30% CAGE, 72 h after nanosensor administration", "result": 0.72}, {"measurement": "diagnostic power of urinary reporter", "setting": "[2]; topical 30% CAGE, thrombosis induced at 12 h, n = 5", "result": "retained their diagnostic power"}, {"measurement": "diagnostic power of urinary reporter", "setting": "[2]; topical 30% CAGE, thrombosis induced at 24 hours, n = 5", "result": "retained their diagnostic power"}, {"measurement": "discrimination of diseased from healthy mice", "setting": "[2]; topical 30% CAGE, thrombosis induced at 48 hours, n = 5", "result": "could not discriminate diseased from healthy mice"}, {"measurement": "discrimination of diseased from healthy mice", "setting": "[2]; topical 30% CAGE, thrombosis induced at 72 hours, n = 5", "result": "could not discriminate diseased from healthy mice"}]}, {"substance": "5FAM-GGfPRSGGGK(CPQ2)-(EG)2-C-[8armPEG] [TDN‐qFAM, Quenched thrombosis detecting nanosensors: 5-FAM/CPQ2-flanked thrombin substrate peptide conjugated to 40 kDa 8-arm PEG nanoparticles]", "values": [{"measurement": "absorption maximum at 495 nm (5-FAM) after storage", "setting": "[3]", "result": "virtually unchanged"}, {"measurement": "cleavage in the absence of recombinant enzyme", "setting": "[4]; 30% CAGE alone, no thrombin", "result": "no cleavage was observed"}, {"measurement": "cleavage (fluorescence dequenching) with recombinant thrombin", "setting": "[4]; 30% CAGE, thrombin 10 × 10^-9 M, nanosensor 10 × 10^-6 M by peptide", "result": "clear cleavage profile with gradual increase in fluorescence intensity"}, {"measurement": "endogenous thrombin activity against nanosensor in mouse serum", "setting": "[5]; 30% CAGE, n = 3 measurements", "result": "partially hindered"}, {"measurement": "functionality against thrombin cleavage in mouse serum on dilution of CAGE", "setting": "[5]; stepwise dilution of CAGE with PBS (5%, 1%, 0.1%, 0%), n = 3", "result": "improved"}, {"measurement": "penetration into porcine skin", "setting": "[6]; 30% CAGE, fluorescence, n = 3 skin slices", "result": "slight increase in penetration"}, {"measurement": "amount transported into porcine skin", "setting": "[6]; in PBS, acceptor PBS, fluorescence", "result": "negligible amount"}, {"measurement": "penetration through porcine skin", "setting": "[6]; undiluted (100%) CAGE, fluorescence and confocal microscopy, n = 3 skin slices", "result": "dramatically improved penetration"}, {"measurement": "aggregation associated size increase (>100 nm), dynamic light scattering", "setting": "[7]; 30% CAGE solution vs PBS, ZetaSizer", "result": "did not exhibit any significant aggregation associated size increase"}, {"measurement": "mean hydrodynamic size when dissolved in CAGE", "setting": "[7]; CAGE vs PBS, dynamic light scattering", "result": "slight increase"}]}]}
